Assay results as given in ChEMBL document CHEMBL6092217 (Eur J Med Chem, 2024).
Calls of active or inactive are those of the source. No cut-off for these calls is given here.

How the values were obtained:
HT-29 [1] = test: Antitumor activity against human HT-29 cells xenografted in BALB/c mouse assessed as tumor growth inhibition at 10 mg/kg, iv measured after 21 days; type: functional; conditions: HT-29, 504 h, time 21 day, read-out: TGI
MCF7 = test: Antiproliferative activity against human MCF7 cells assessed as cell viability incubated for 72 hrs by MTT assay; type: functional, cell-based; conditions: MCF7, 72 h
[2] = Resistance index, ratio of IC50 for human A549/TxR cells to IC50 for human A549 cells; type: functional
[3] = Toxicity in ICR mouse assessed as effect on AST level at 10 to 40 mg/kg, iv administered every 2 days and measured after 14 days; type: organism-based; conditions: in vivo, 336 h, dose 10-40 mg/kg, time 14 day
Mitochondrial membrane = test: Induction of mitochondrial membrane potential loss in human HT-29 cells assessed as increase in green fluorescence at 50 to 100 nM incubated for 24 hrs by JC-1 staining based confocal microscopic analysis; type: cell membranes; conditions: dose 50-100 nM
Tubulin (Homo sapiens) [4] = molecular target: T1, Tubulin (Homo sapiens) (UniProt P68371+Q9H4B7+P0DPH7+P68366+Q13509+Q71U36+P04350+Q3ZCM7+P07437+P68363+Q9BQE3+Q6PEY2+Q13885+Q9BVA1+Q9BUF5); test: Inhibition of tubulin polymerization in human HT-29 cells assessed as upregulation of DeY- alpha-tubulin expression 50 to 200 nM incubated for 24 hrs by Western blot analysis; type: cell-based; conditions: dose 50-200 nM
[5] = Volume of distribution at steady state in Sprague-Dawley rat at 5 mg/kg, iv measured upto 24 hrs by HPLC-MS analysis; type: ADME, organism-based; conditions: in vivo, read-out: Vdss
HT-29 [6] = test: Induction of ROS accumulation in human HT-29 cells incubated for 24 hrs by DCFH-DA staining based microscopic analysis; type: functional, cell-based; conditions: dose 50-100 nM
[7] = Toxicity in ICR mouse assessed as effect on RBC count at 10 to 40 mg/kg, iv administered every 2 days and measured after 14 days; type: organism-based; conditions: in vivo, 336 h, dose 10-40 mg/kg, time 14 day
HT-29 [8] = test: Induction of cell cycle arrest in human HT-29 cells assessed as accumulation of cells at G1 phase at 50 nM incubated for 24 hrs by flow cytometry analysis (reference value: 67.6%); type: functional
Tubulin (Homo sapiens) [9] = molecular target: T1, Tubulin (Homo sapiens); test: Disruption of microtubule network in human HT-29 cells incubated for 8 hrs by DAPI staining based confocal microscopic analysis; type: cell-based; conditions: dose 50-200 nM
HT-29 [10] = test: Induction of cell cycle arrest in human HT-29 cells assessed as accumulation of cells at S phase at 50 nM incubated for 24 hrs by flow cytometry analysis (reference value: 20.8 %); type: functional
[11] = Binding affinity to porcine brain tubulin assessed as dissociation constant measured after 20 mins by fluorescence based analysis; set-up: species or system Sus scrofa
HT-29 [12] = test: Induction of apoptosis in human HT-29 cells assessed as late apoptotic cells at 200 nM incubated for 24 hrs by FITC/PI staining based flow cytometry analysis (reference value: 0.20%); type: functional
HT-29 [13] = test: Induction of apoptosis in human HT-29 cells assessed as downregulation of Bcl-2 level at 50 to 200 nM incubated for 24 hrs by Western blot analysis; type: functional, cell-based; conditions: dose 50-200 nM
[14] = Clerance in Sprague-Dawley rat at 5 mg/kg, iv measured upto 24 hrs by HPLC-MS analysis; type: ADME, organism-based; conditions: in vivo
HT-29 [15] = test: Induction of cell cycle arrest in human HT-29 cells assessed as accumulation of cells at G1 phase at 200 nM incubated for 24 hrs by flow cytometry analysis (reference value: 67.6%); type: functional
HT-29 [16] = test: Induction of apoptosis in human HT-29 cells assessed as early apoptotic cells at 200 nM incubated for 24 hrs by FITC/PI staining based flow cytometry analysis (reference value: 8.14%); type: functional
HT-29 [17] = test: Antitumor activity against human HT-29 cells xenografted in BALB/c mouse assessed as reduction in Ki67 expression at 10 to 40 mg/kg, iv measured after 21 days by immunohistochemical analysis; type: functional, organism-based; conditions: dose 10-40 mg/kg, time 21.0 day
A549 = test: Inhibition of cell invasion in human A549 cells measured for 24 hrs by Transwell assay; type: functional, cell-based; conditions: dose 50-100 nM
HT-29 [18] = test: Induction of apoptosis in human HT-29 cells assessed as late apoptotic cells at 100 nM incubated for 24 hrs by FITC/PI staining based flow cytometry analysis (reference value: 0.20%); type: functional
[19] = Toxicity in ICR mouse assessed as effect on CK level at 10 to 40 mg/kg, iv administered every 2 days and measured after 14 days; type: organism-based; conditions: in vivo, 336 h, dose 10-40 mg/kg, time 14 day
[20] = Toxicity in BALB/c mouse assessed as spleen damage at 10 to 40 mg/kg, iv measured after 21 days by H and E staining based analysis; type: organism-based; conditions: in vivo, 504 h, dose 10-40 mg/kg, time 21 day
HT-29 [21] = test: Induction of apoptosis in human HT-29 cells assessed as necrotic cells at 100 nM incubated for 24 hrs by FITC/PI staining based flow cytometry analysis (reference value: 0.017 %); type: functional
HT-29 [22] = test: Antitumor activity against human HT-29 cells xenografted in BALB/c mouse assessed as tumor growth inhibition at 40 mg/kg, iv measured after 21 days; type: functional; conditions: HT-29, 504 h, time 21 day, read-out: TGI
HT-29 [23] = test: Induction of apoptosis in human HT-29 cells assessed as early apoptotic cells at 50 nM incubated for 24 hrs by FITC/PI staining based flow cytometry analysis (reference value: 8.14%); type: functional
[24] = Toxicity in ICR mouse assessed as effect on hemoglobin level at 10 to 40 mg/kg, iv administered every 2 days and measured after 14 days; type: organism-based; conditions: in vivo, 336 h, dose 10-40 mg/kg, time 14 day
[25] = Toxicity in BALB/c mouse assessed as heart damage at 10 to 40 mg/kg, iv measured after 21 days by H and E staining based analysis; type: organism-based; conditions: in vivo, 504 h, dose 10-40 mg/kg, time 21 day
HT-29 [26] = test: Inhibition of colony formation in human HT-29 cells; type: functional, cell-based; conditions: dose 25-200 nM
HUVEC = test: Inhibition of tube formation in HUVEC cells incubated for 6 hrs by inverted microscopic analysis; type: functional, cell-based; conditions: Homo sapiens, dose 50-100 nM
HT-29 [27] = test: Induction of apoptosis in human HT-29 cells assessed as upregulation of Bax level at 50 to 200 nM incubated for 24 hrs by Western blot analysis; type: functional, cell-based; conditions: dose 50-200 nM
Tubulin (Homo sapiens) [28] = molecular target: T1, Tubulin (Homo sapiens); test: Inhibition of tubulin polymerization in human HT-29 cells assessed as downregulation of acetylated alpha-tubulin expression 50 to 200 nM incubated for 24 hrs by Western blot analysis; type: cell-based; conditions: dose 50-200 nM
HT-29 [29] = test: Induction of apoptosis in human HT-29 cells assessed as necrotic cells at 50 nM incubated for 24 hrs by FITC/PI staining based flow cytometry analysis (reference value: 0.017 %); type: functional
[30] = Toxicity in ICR mouse assessed as effect on BUN level at 10 to 40 mg/kg, iv administered every 2 days and measured after 14 days; type: organism-based; conditions: in vivo, 336 h, dose 10-40 mg/kg, time 14 day
Tubulin = test: (§1) Inhibition of tubulin polymerization (unknown origin) in presence of GTP by fluorescence plate reader analysis; type: protein-complex assay, Homo sapiens
Tubulin (Homo sapiens) [31] = molecular target: T1, Tubulin (Homo sapiens); test: as §1; type: protein-complex assay; conditions: dose 0.625-10 µM
HT-29 [32] = test: Induction of cell cycle arrest in human HT-29 cells assessed as accumulation of cells at G2 phase at 100 nM incubated for 24 hrs by flow cytometry analysis (reference value: 13 %); type: functional

For `COc1ccc(N(C)c2nc(/C=C/c3cccc(OC)c3)nc3ccccc23)cc1`, the inhibition in vivo at 10 mg/kg (HT-29 [1]) was 53%, the IC50 (MCF7) was 0.11 µM and the “Ratio IC50” value [2] was 2.53. The Activity [3] was “Non-toxic”, the Activity (Mitochondrial membrane) was “Active” and the inhibition (Tubulin (Homo sapiens) [4]) was “Active”. For the same compound, the Vd [5] was 1.03 L/kg, the Activity (HT-29 [6]) was “Dose-dependent-effect” and the Activity [7] was “Non-toxic”. The Activity (HT-29 [8]) was 64.6%, the Activity (Tubulin (Homo sapiens) [9]) was “Dose-dependent-effect” and the Activity (HT-29 [10]) was 16.5%. For the same compound, the Kd [11] was 8.79 µM, the Activity (HT-29 [12]) was 37.3% and the Activity (HT-29 [13]) was “Active”. For the same compound, the clearance [14] was 22.2 mL/min/kg, the Activity (HT-29 [15]) was 23.5% and the Activity (HT-29 [16]) was 18.2%. The Activity (HT-29 [17]) was “Active”, the inhibition (A549) was “Dose-dependent-effect” and the Activity (HT-29 [18]) was 27.2%. For the same compound, the Activity [19] was “Non-toxic”, the Activity [20] was “Non-toxic” and the Activity (HT-29 [21]) was 2.72%. For the same compound, the inhibition in vivo at 40 mg/kg (HT-29 [22]) was 74.2%, the Activity (HT-29 [23]) was 12.7% and the Activity [24] was “Non-toxic”. For the same compound, the Activity [25] was “Non-toxic”, the inhibition (HT-29 [26]) was “Dose-dependent-effect” and the inhibition (HUVEC) was “Dose-dependent-effect”. For the same compound, the Activity (HT-29 [27]) was “Active”, the inhibition (Tubulin (Homo sapiens) [28]) was “Active” and the Activity (HT-29 [29]) was 1.79%. For the same compound, the Activity [30] was “Non-toxic”, the IC50 (Tubulin) was 3.16 µM and the inhibition (Tubulin (Homo sapiens) [31]) was “Dose-dependent-effect”. It also gave an Activity (HT-29 [32]) of 39.8%.
